Experimental data: article PMC8011991 (Journal of medicinal chemistry, 2020)
“Also recorded” adds a separate entry of the source.

Key:
[1] = test system: NL4–3 Env pseudo-typed HIV-1 virus; experiment: ELISA-based quantification of capsid; assay type: cell-based; details: 10 μM compound
[2] = in vitro; details: human, microsomes
[3] = molecular target: recombinant HIV-1 RT (Human immunodeficiency virus type 1 group M subtype B, UniProt P03366); experiment: Recombinant HIV-1 RT inhibitory assay; assay type: biochemical; details: at 0.2 μM
[4] = In vivo pharmacokinetics in rats; details: rat, iv 2 mg/kg
[5] = test system: Kunming mice; experiment: Single-dose acute toxicity in mice; details: intragastric

SMILES	increase of CA/p24 content of the produced virus compared to the DMSO control [1]	CLint scaled [2]	other results
Cc1[nH]c2ccccc2c1CC(=O)N[C@@H](Cc1ccccc1)C(=O)N(C)c1ccccc1 [PF-74, reference compound]	around 40%	972 mL/min/kg	
COc1ccc(N(C)C(=O)[C@H](Cc2ccccc2)NC(=O)CN2CCN(S(=O)(=O)c3ccc(N)cc3)CC2=O)cc1 [Compound 11l, (S)-2-(2-(4-((4-aminophenyl)sulfonyl)-2-oxopiperazin-1-yl)acetamido)-N-(4-methoxyphenyl)-N-methyl-3-phenylpropanamide]	0–20%	308 mL/min/kg	RT activity as compared to the DMSO control [3]: 95±15%; V [4]: 5.7524 L/kg; death after single dose ([5]; 1000 mg/kg): No death was observed; acute toxicity / tolerability ([5]; single dose 1000 mg/kg, one week): no acute toxicity; also recorded: well-tolerated
COc1ccc(N(C)C(=O)[C@H](Cc2ccccc2)NC(=O)CN2C(=O)Nc3ccccc3S2(=O)=O)cc1 [Compound 8a, (S)-2-(2-(1,1-dioxido-3-oxo-3,4-dihydro-2H-benzo[e][1,2,4]thiadiazin-2-yl)acetamido)-N-(4-methoxyphenyl)-N-methyl-3-phenylpropanamide]	0–20%		
O=C(O)Cc1ccccc1Nc1c(Cl)cccc1Cl [Diclofenac]		84.3 mL/min/kg	
COc1ccc(N(C)C(=O)[C@H](Cc2ccccc2)NC(=O)CNS(=O)(=O)c2cccc(F)c2)cc1 [Compound 6k, (S)-2-(2-((3-fluorophenyl)sulfonamido)acetamido)-N-(4-methoxyphenyl)-N-methyl-3-phenylpropanamide]	0–20%		
C[C@]12CC[C@H]3[C@@H](CCC4=CC(=O)CC[C@@]43C)[C@@H]1CC[C@@H]2O [Testosteron^e, Testosterone]		85.7 mL/min/kg	CLint(mic) (HLM 0.5 mg protein/mL): 95.2 µL/min/mg; Remaining (T=60min) (HLM 0.5 mg protein/mL, 60 min): 6.1%; Remaining (NCF=60min) (no cofactor (no NADPH), 60 min): 84.0%
